Measurements reported in patent publication US6787149B1 (El Khoury and Stein Ltd., priority 2000, dated 2004).

Key:
[1] = system: intraarticular opioid receptors; experiment: Intraarticular injection after arthroscopic surgery of the knee; format: in vivo, human; conditions: injected in the knee after arthroscopic surgery
[2] = system: patients who had burns from radiation therapy
[3] = system: patients who had undergone failed back operations; conditions: 1-3 mg on the back, ultrasound, massage, heat, Aquaphor vehicle; cited from earlier work
[4] = system: patients who had acute shingles; experiment: Analgesia for shingles, morphine spray; format: in vivo, human
Text: Other patients who were helped were those who had acute shingles which would produce excruciating pain on the chest.

[5] = system: children undergoing tonsillectomy; experiment: Analgesia for postsurgical pain after tonsillectomy, morphine spray on tonsil beds; format: in vivo, human; conditions: spray in saline on the tonsil beds after surgery; able to swallow and eat ice cream same day
Text: The morphine spray in saline was used on the tonsil beds after surgery in children undergoing tonsillectomy.

[6] = after two or three days of using the spray

Row | Structure (SMILES) | Duration of relief after surgery [1] [h] | Relief of pain, patients with pain on the tongue or in the mouth due to radiation burns ([2]; compared with skin radiation burn patients) | Time able to sit to do exercises after topical application ([2]; one patient with severe burns on the buttocks, could not sit before) | Relief of pain, one patient with severe burns on the buttocks (prostate cancer) ([2]; spray) | Start of relief after topical application ([2]; two or three mg diluted with saline, sprayed) [min] | Relief of pain ([2]; two or three mg diluted with saline, sprayed over inflamed area, all patients treated) | Pain relief [3] | Healing [4, 6] | Post-herpetic neuralgia [4, 6] | Pain of acute shingles ([4]; spray, typically three times a day) | Pain after surgery [5]
1 | CCCCN1CCCCC1C(=O)Nc1c(C)cccc1C (centres unmarked) [Marcaine] | ≤ 12 |  |  |  |  |  |  |  |  |  | 
2 | CN1CC[C@]23c4c5ccc(O)c4O[C@H]2[C@@H](O)C=C[C@H]3[C@H]1C5.O=S(=O)(O)O [Morphine, morphine sulfate] |  | same experience | an hour and a half | excellent relief of the pain | 10 to 15 | excellent relief of pain | Some improvement in pain relief | healed faster | without any post-herpetic neuralgia | significantly reduced | no pain after surgery
